Data set [1] relates to myocardial dysfunction resulting from globally induced ischemia during cardiac surgical procedures. Type of data set: in vivo, human. As to the method:
B. A preconditioning study was performed in human patients scheduled for surgery.
Inclusion criteria were: • Males or females aged 18 or older • Patients with documented coronary artery disease undergoing CABG with an ejection fraction (EF) of 35% based on echocardiography, radionuclide imaging or cardiac catheterization done within eight weeks of surgery. (If more than one method was used to evaluate EF during this period, the mean values of the various methods were 35%). • Patients undergoing single or double valve replacement with documented coronary artery disease also undergoing CABG; or patients undergoing single or double valve replacement without CABG • Serum creatinine of <2.35 mg/dl • For females of childbearing potential, a negative pregnancy test. • Signed consent forms.
The test article, placebo or ribose, was dispensed according to computer-generated randomization schedule either for patients undergoing CABG only or for patients undergoing heart valve surgery +/−CABG. All patients received a high dose narcotic anaesthesia technique consisting of either fentanyl (50-100 μg/kg) or sufentanil (10-20 μg/kg) and midazolam. No restriction was placed on the type of anaesthetic agents administered. The anaesthesiologists and surgeons responsible for the care of the patents made the clinical decision to use inotropic support, intra-aortic balloon pump support or post bypass circulatory support based on their knowledge of patients requirements and accepted medical practice and without regard to test article status. The test article infusion was started intravenously at the time of aortic cross clamping and continued until the pulmonary artery catheters introducer was removed or for five days (120) hours whichever occurred first. The surgeons responsible for the clinical care of the patients removed the pulmonary artery catheter cordis without regard to test article stats.
Hemodynamic measurements consisting of heart rate, blood pressure, pulmonary artery pressures, pulmonary capillary wedge pressure (PCWP), central venous pressure (CVP) and thermodilution cardiac index (CI) were obtained at the following time intervals: immediately prior to induction of anaesthesia, post induction of anaesthesia prior to sternotomy, post sternotomy prior to initiation of cardiopulmonary bypass, upon successful termination of cardiopulmonary bypass prior to sternal closure and prior to reversal of heparinization with protamine, post closure of the sternum, upon arrival in the intensive care unit and at one or two hour intervals until the pulmonary artery a catheter was removed.
Transesophageal echocardiography data (H.P. Sonos OR, 5.0 MHz, Andover, Mass.) was collected at the following time intervals: post induction of anaesthesia prior to sternotomy, and immediately post closure of the sternum. Transthoracic echocardiography (H.P. Sonos 1500. 2.5 MHz, Andover, Mass.) measurements were made on day three and day seven of the study period. For both the transesophageal and transthoracic echocardiograms, the following long axis and short axis mid-papillary area changes were measured in triplicate by acoustic quantification techniques: end diastolic area (EDA), end systolic area (ESA), fractional area change (FAC), +dA/dt and −dA/dt. All area change data were also analyzed by manual off line analysis. EF was also determined off line using a long axis view, In addition, regional wall motion was quantified as the following: normal=1, hypokinetic=2, akinetic=3 and dyskinetic=4. The wall motion index score (WMIS) and percentage normal myocardium were calculated by reading a maximum of sixteen segments. Echocardiography data for evaluating wall motion and area change was analyzed only if greater than 75% of the endocardial border could be visualized through a complete cardiac cycle. Off line analysis was performed on an Image View echocardiography workstation (Nova Microsonics, Allendale, N.J.). […]

Another data set concerns healthy dog hearts. The following applies: administration immediately at reperfusion and continuing for at least four days; cited from earlier work.
Data set [2] has as its system acute, first response MI patients. The data set can be described thus: first response acute MI patients given D-ribose (subset of Group 1). In kind it is in vivo, human. The following applies: seven first response MI patients. The text has this:
(§1) Following the initial study described in Example 2, 366 consecutive patients, 41-88 years of age, undergoing OPCABG were enrolled. Of these, 89 had recent MIs and seven presented with MIs within one to seven days. Prospectively collected data included comorbidities, hemodynamics and outcomes. All patients were managed with a protocol emphasizing normoglycemia, normothermia and reduced inflammation. Group 1 (n=308) received multiple oral doses (5 gram/dose) of D-ribose prior to and following surgery. […] Otherwise, both groups had similar preoperative characteristics including ejection fraction (EJ) and Society for Thoracic Surgery (STS) Risk Indices with nonsignificant trends in the increased comorbidities in Group 1.
A. While these studies are promising, neither replicates the clinical situation of a patient presenting at first response with an acute myocardial infarction, where time is of the essence. In most cases, MI is a spontaneous event, but an MI can be induced during a procedure such as angiogram, angioplasty or dobutamine echocardiography. Such a patient is generally in the process of compromising cardiac function.
It should also be mentioned that these seven patients are included in Group 1 of Table I. With preloading with D-ribose, they were able to maintain and slightly increase their CI in comparison to the total group.

In data set [3] the test system is rats subjected to an anterior MI. To be noted: intravenous ribose for 14 days previous to the inducement of MI; cited from earlier work.
Data set [4] deals with patients undergoing OPCABG. The data set is described as follows: metabolically directed protocol: oral D-ribose prior to and following OPCABG. In kind it is in vivo, human.
Source text: as §1

[5] abbreviates: Group 1, oral D-ribose, p<0.001 versus Group 2.

`O=C[C@H](O)[C@H](O)[C@H](O)CO` [D-ribose]: the “patients who developed hypoglycemia (fingerstick glucose <70 mg/dl)” value in data set [1] (both, human, in vivo) is recorded as 28%. In addition, in data set [1] (human, in vivo), the lowest glucose level worked out at 31 mg/dL, the “mean glucose level in those patients developing hypoglycemia” value was 58 mg/dL, the “neurological or other clinical symptoms associated with hypoglycemia” value is listed as “None” and the “subjects in whom study drug infusion was stopped because of hypoglycemia” value is listed as “two”. The “mean Day 7 EF” value in data set [1] (ribose treated patients, Day 7, echocardiography, IV infusion 100 mg/kg/hr) is 41%. In addition, in data set [1] (ribose treated patients, baseline, echocardiography, IV infusion 100 mg/kg/hr), the “mean baseline EF” value amounted to 44%. The ATP recovery result in the data set with healthy dog hearts was “enhanced ATP recovery”. In data set [2], the “Change (Preop CI to Postop CI)” value is reported as “+0.41”, the “Postop CI” value worked out at 2.60 ± 0.4 and the “Preop CI” value amounted to 2.19 ± 0.7. Also, the “parameters of heart function (LV diastolic diameter, LV systolic diameter, ejection fraction, shortening fraction)” value in data set [3] is “Significant improvement”. In data set [4] (Group 1), the postoperative death entry is given as “one”. The “time in intensive care” value in data set [4] (Group 1 (n=308), multiple oral doses 5 gram/dose prior to and following surgery, trend not significant) was determined as 72 h. The “requirement for IABP” value in data set [4] (Group 1 (n=308), oral D-ribose, trend not significant) was 12%. Moreover, in data set [4] (setting [5]), the “increase in CI after surgery” value turned out to be 0.8 and the “patients demonstrating an increase in CI after OPCABG” value was 86%. In addition, the “Postop CI” value in data set [4] (Group 1, postoperative cardiac index) is listed as 3.0 ± 0.7. Moreover, the “Preop CI” value in data set [4] (Group 1, preoperative cardiac index) was found to be 2.3 ± 0.5. The “Change (Preop CI to Postop CI)” value in data set [4] (Group 1 of Table I) is listed as “+0.07”.

The values are drawn from patent US20170326165A1, “USE OF RIBOSE IN FIRST RESPONSE TO ACUTE MYOCARDIAL INFARCTION” (BIOENERGY, INC., priority 2008, published 2017).
